One experiment concerns the target PI3K p110β/p85α (human) (Homo sapiens (Human), UniProt P42338). In words: PI3K p110β/p85α (human), non-radioactive assay (HTRF). The experiment is classed as biochemical. The note with it: ATM versus PI3Kbeta. The method, then: PI3K p110β/p85α (Human), Non-Radioactive Assay
PI3K p110β/p85α (human) was incubated in an assay buffer comprising 10 μM phosphatidylinositol 4,5-bisphosphate and MgATP (concentration as necessary). The reaction was initiated by addition of MgATP solution. After an incubation time of 30 min at room temperature, the reaction was stopped by addition of a solution consisting of EDTA and biotinylated phosphatidylinositol 3,4,5-trisphosphate. Finally, the detection buffer, consisting of a europium-labelled anti-GST monoclonal antibody, a GST-labelled GRP1 PH domain and streptavidin allophycocyanin, was added. The plate was read out via homogeneous time-resolved fluorescence (HTRF) and the corresponding signals were evaluated via the formula HTRF=10000×(Em665 nm/Em620 nm).
On the technique in general: In TR-FRET formats the signal depends on donor and acceptor labels being close together.

The target of experiment [1] is human recombinant ATM (ataxia telangiectasia mutated) kinase (Homo sapiens (Human), UniProt Q13315). Nature of the experiment: ATM kinase assay, determination of ATM inhibition (IC50 ATM), TR-FRET. It counts as biochemical. To be noted: 10 μM ATP, p53 substrate. Here is the method:
ATM Kinase Assay—Determination of ATM Inhibition (IC50 ATM):
The IC50 value was determined with the aid of a biochemical ATM kinase assay. The assay consists of two steps: the enzymatic reaction and the detection step. Firstly, ATM (ataxia telangiectasia mutated) protein and the test substance are incubated at different concentrations with addition of substrate protein p53 and ATP. ATM mediates the phosphorylation of p53 at several positions, including at amino acid S15. The amount of phosphorylated p53 is determined with the aid of specific antibodies and the TR-FRET technique. The enzymatic ATM assay is carried out as TR-FRET (HTRF™, Cisbio Bioassays) based 384-well assay. In the first step, purified human recombinant ATM (human ATM, full length, GenBank ID NM_000051, expressed in a mammal cell line) is incubated in assay buffer for 15 minutes with the ATM inhibitor in various concentrations and without test substance as negative or neutral control. The assay buffer comprises 25 mM HEPES pH 8.0, 10 mM Mg(CH3COO)2, 1 mM MnCl2, 0.1% BSA and 0.01% Brij® 35, 5 mM dithiothreitol (DTT). […] After incubation, usually for 2 hours (between 1.5 and 15 h), for signal development, the plates are analysed in a plate reader (EnVision, PerkinElmer) using TRF mode (and with laser excitation). […]

Another experiment concerns the target mTOR (human) (Homo sapiens (Human), UniProt P42345). In words: mTOR (human) radiometric kinase assay. The experiment is classed as biochemical. To be noted: ATM versus mTOR. The method, then:
Furthermore, the effect, in particular inhibition, of other kinases and thus the selectivity of the compounds according to the invention can be determined with the aid of the following assay:
mTOR (human) was incubated with 50 mM HEPES pH 7.5, 1 mM EGTA, 0.01% Tween 20, 2 mg/ml of the substrate, 3 mM MnCl2 and [γ-^33P-ATP] (specific activity approximately 500 cpm/pmol, concentration as necessary). The reaction was initiated by addition of MgATP solution. After incubation at room temperature for 40 minutes, the reaction was stopped by addition of 3% phosphoric acid. 10 μl of the reaction solution were then transferred dropwise onto a P30 filtermat and washed three times for 5 min in 75 mM phosphoric acid and once in methanol, dried and evaluated by means of liquid scintillation counting.

Experiment [2] concerns phosphorylation of CHK2 (Thr68) in HCT116 cells. In words: Cellular pCHK2 assay, bleomycin-induced phosphorylation of CHK2 (phospho-Thr68), immunofluorescence high content. It counts as cell-based, human. The note with it: 10 μM bleomycin, 4 h. An excerpt:
For the identification of substances which inhibit the phosphorylation of the protein kinase CHK2 at the amino acid threonine 68, an immunofluorescence-based “high content” analysis assay was used in HCT116 cells.
In vitro cell-based immunofluorescence assay for the identification of inhibitors of bleomycin-induced phosphorylation of CHK2 (phospho-Thr68) in the human colon carcinoma cell line HCT116:
HCT116 cells are sown out in a defined cell density in 384-well plates in culture medium (DMEM high glucose, 2 mM GlutaMax, 1 mM Na pyruvate, 10% FCS) and incubated overnight at 37° C. and 10% of CO2. […] After incubation for four hours at 37° C. and 10% of CO2, the cells are fixed (5 min, 4% formaldehyde in PBS), permeabilised (10 min, 0.2% Triton X-100 in PBS) and, after blocking of nonspecific binding sites (10% goat serum, 1% BSA in PBS), incubated overnight at 4° C. with a specific anti-pCHK2 antibody (cell signalling #2661). pCHK2 (Thr68) is determined using an Alexa488-labelled secondary anti-rabbit IgG antibody. […] The pCHK2 signal is detected using a high-content imager (Molecular Devices IMX Ultra) and automatic image analysis using the MetaXpress software belonging to the instrument. The number of cell nuclei which have a pCHK2 signal above a defined background is determined.

A value given as a limit tells only on which side of the number the result lay.

Usually IC50 stands for the midpoint of a concentration-inhibition curve.

Sequence of human recombinant ATM (ataxia telangiectasia mutated) kinase (Q13315 whole entry, change not shown): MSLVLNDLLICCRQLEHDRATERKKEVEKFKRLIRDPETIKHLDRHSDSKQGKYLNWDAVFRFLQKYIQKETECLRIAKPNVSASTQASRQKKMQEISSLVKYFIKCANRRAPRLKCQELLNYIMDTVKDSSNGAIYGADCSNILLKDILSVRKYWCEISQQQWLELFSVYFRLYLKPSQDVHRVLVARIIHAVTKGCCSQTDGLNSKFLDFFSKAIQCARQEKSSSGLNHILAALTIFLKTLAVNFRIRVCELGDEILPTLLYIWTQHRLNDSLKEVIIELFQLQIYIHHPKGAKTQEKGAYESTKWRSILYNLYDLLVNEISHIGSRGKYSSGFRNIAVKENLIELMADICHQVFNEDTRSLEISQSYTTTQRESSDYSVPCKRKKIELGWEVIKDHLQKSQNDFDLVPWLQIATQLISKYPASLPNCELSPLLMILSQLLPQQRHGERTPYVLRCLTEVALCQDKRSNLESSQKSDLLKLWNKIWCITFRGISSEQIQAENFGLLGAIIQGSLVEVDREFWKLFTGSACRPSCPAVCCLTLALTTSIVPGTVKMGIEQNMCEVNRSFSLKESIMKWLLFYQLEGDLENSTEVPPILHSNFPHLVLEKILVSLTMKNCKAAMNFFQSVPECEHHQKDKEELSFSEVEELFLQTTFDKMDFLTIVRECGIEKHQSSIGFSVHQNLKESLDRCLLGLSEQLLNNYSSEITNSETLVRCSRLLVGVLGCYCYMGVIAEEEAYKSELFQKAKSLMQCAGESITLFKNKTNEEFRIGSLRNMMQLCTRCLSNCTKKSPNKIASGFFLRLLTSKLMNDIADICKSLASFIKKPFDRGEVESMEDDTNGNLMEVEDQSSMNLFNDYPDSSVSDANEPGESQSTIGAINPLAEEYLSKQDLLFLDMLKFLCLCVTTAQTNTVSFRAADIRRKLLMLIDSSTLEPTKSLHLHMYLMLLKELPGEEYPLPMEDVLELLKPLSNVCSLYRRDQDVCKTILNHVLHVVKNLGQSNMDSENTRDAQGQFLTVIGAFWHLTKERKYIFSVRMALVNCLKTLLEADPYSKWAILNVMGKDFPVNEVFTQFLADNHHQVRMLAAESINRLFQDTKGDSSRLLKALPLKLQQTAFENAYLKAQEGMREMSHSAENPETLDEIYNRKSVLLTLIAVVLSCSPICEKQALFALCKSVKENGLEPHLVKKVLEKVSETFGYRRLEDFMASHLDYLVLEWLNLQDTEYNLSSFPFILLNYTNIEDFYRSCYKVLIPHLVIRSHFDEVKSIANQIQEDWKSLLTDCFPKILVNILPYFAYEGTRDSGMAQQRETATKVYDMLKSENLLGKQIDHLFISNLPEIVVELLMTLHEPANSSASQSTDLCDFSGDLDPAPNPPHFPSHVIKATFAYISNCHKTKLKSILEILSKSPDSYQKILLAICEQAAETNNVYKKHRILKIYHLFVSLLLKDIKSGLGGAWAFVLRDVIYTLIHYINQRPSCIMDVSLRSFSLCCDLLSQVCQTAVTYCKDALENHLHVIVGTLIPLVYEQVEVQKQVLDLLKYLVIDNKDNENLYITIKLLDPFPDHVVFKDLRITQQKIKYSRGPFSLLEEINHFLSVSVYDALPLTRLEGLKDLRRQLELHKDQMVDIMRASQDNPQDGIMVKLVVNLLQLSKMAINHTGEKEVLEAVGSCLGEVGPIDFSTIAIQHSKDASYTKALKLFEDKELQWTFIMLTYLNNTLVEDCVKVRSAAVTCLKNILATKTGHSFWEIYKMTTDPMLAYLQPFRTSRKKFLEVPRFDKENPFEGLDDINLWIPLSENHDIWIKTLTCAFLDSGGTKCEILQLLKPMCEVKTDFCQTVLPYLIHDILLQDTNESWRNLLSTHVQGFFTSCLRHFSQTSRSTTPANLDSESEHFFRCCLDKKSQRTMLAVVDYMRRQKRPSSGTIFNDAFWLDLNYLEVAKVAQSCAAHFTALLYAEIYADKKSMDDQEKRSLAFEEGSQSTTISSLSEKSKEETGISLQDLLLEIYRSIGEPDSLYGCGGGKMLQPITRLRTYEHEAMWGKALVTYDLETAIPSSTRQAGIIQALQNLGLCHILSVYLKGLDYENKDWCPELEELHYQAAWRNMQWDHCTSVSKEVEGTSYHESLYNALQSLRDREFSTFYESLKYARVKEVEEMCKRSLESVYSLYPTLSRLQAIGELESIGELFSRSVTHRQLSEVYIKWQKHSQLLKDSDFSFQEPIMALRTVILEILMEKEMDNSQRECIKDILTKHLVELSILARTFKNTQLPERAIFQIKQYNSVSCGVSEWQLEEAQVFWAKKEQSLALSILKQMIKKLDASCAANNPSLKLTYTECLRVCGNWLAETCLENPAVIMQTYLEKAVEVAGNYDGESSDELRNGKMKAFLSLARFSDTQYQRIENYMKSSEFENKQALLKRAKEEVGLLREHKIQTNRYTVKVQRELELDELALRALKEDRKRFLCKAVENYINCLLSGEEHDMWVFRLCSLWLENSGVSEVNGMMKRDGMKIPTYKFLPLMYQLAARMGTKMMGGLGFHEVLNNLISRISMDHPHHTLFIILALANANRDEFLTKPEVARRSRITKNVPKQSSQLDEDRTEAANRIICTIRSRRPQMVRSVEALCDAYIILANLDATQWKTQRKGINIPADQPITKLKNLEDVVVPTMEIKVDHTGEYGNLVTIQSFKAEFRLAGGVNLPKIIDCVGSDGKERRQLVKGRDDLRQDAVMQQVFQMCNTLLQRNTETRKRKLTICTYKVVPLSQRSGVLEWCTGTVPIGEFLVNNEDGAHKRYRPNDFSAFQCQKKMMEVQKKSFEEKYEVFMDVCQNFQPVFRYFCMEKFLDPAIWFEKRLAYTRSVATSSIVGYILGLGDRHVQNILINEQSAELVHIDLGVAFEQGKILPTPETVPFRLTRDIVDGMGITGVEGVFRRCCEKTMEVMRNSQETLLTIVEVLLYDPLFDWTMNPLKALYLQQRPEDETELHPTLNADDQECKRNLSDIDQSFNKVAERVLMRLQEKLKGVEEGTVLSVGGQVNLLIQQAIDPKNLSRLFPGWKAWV
Sequence of PI3K p110β/p85α (human) (P42338 whole entry, the tested form may be a part): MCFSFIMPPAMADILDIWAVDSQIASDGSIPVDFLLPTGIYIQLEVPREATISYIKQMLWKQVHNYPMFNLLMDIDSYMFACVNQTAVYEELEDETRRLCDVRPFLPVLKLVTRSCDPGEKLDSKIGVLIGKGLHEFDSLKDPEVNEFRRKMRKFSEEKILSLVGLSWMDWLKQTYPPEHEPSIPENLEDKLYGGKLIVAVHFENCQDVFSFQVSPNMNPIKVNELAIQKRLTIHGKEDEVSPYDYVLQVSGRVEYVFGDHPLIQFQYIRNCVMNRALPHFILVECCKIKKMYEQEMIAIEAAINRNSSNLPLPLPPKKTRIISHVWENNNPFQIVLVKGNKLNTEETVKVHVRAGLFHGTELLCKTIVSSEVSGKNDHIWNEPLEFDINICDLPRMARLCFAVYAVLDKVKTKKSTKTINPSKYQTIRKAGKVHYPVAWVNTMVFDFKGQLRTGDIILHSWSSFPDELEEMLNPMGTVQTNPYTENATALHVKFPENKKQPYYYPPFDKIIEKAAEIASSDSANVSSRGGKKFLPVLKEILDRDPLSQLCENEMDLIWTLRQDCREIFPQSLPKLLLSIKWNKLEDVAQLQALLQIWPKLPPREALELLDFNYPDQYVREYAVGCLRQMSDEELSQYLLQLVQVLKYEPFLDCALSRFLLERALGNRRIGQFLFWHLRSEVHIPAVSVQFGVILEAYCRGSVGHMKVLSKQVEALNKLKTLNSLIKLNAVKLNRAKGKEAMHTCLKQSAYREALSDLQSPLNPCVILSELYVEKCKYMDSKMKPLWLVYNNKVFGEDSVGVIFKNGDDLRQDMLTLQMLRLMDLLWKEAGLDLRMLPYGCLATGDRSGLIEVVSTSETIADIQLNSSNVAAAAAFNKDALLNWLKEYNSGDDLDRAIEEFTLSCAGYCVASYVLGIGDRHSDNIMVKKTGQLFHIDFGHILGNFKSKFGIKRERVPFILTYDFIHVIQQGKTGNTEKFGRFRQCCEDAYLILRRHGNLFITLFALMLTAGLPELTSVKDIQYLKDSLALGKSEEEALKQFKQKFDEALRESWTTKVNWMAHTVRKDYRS
Sequence of PI3K p110β/p85α (human) (P27986 whole entry partner, the tested form may be a part): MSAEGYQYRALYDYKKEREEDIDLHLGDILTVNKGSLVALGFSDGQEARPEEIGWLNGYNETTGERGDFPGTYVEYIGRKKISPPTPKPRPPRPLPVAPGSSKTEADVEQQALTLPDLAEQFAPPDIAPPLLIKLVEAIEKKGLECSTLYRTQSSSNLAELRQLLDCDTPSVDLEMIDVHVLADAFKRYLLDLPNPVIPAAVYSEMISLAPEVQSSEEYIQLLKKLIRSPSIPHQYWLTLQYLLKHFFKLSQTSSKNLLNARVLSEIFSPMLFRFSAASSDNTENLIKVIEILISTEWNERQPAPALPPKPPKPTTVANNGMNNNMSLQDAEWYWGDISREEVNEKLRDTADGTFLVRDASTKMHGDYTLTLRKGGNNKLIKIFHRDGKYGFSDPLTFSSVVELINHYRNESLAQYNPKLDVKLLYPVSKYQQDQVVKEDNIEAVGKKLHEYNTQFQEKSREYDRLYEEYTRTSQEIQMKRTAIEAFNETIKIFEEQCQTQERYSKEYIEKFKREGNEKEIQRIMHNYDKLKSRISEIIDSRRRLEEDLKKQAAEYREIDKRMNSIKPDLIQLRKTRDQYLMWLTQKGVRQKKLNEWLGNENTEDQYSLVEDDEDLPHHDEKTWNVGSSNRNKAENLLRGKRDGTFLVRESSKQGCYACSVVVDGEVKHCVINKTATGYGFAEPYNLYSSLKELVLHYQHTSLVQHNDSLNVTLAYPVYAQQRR

“1-(3,5-Dimethyl-1H-pyrazol- 4-yl)-7-methoxy-3-methyl-8- (1-methyl-1H-pyrazol-4-yl)- 1,3-dihydroimidazo[4,5-c]- quinolin-2-one [Example 118]”: the “ratio IC50 (ATM):IC50 (PI3Kbeta), selectivity with respect to PI3Kbeta” value on PI3K p110β/p85α (human) is “at least 2000 times”. For the same substance, the values for the IC50 in experiment [1] and in experiment [2] were below 0.01 µM and 0.2 to 1 µM, respectively. Moreover, the “ratio IC50 (ATM):IC50 (mTOR), selectivity with respect to mTOR” value at mTOR (human) is listed as “at least 2000 times”.

The values are drawn from patent US11608338B2, “Imidazolonylquinolines and the use thereof as ATM kinase inhibitors” (priority 2015, dated 2023).
